How the values were obtained:
Assay type in all cases: cell-based
[1] = system: KELLY cells; test: Secondary validation screen of lethal miRNAs, cell viability; conditions: miRNA mimic alone
Description: (§1) Each of the cell lines were reverse transfected in 384-well plate format with 25 nM of a miRNA from the Dharmacon miRNA mimic or inhibitor libraries (version 16.0) using liquid-handling robot Calliper Sciclone ALH3000 according to the conditions described in Table 3. After 24 hours, media was changed using BioTek 406, and 144 hours post-transfection, cell viability was determined using CellTiter-Glo luminescent assay (Promega) at 1:2 dilution. Luminescence measurements were taken on the Synergy H4 high-throughput multimode microplate reader. All screens were performed in duplicates.
(§2) The secondary validation screens were performed in accordance with the genome-wide screens described in Example 1 and Example 2, respectively, with the exception that an additional MYCN-amplified neuroblastoma cell line (SK-N-DZ) was added to each screen.
(§3) Furthermore, five additional non-active miRNAs discovered to have no measureable effect across all treatment groups of the genome-wide screen (‘non-lethal’ miRNAs) were included as negative controls.

[2] = system: SHEP cells; test: as above; conditions: miRNA mimic alone
Description: as §1, §2, §3

[3] = system: SHEP cells; test: Primary functional miRNA mimic screen, CellTiter-Glo cell viability; conditions: miRNA mimic 25 nM alone, 144 hours post-transfection
Excerpt: Breast cancer cell lines (MDA-MB-231, MDA-MB-468, SK-BR-3; BT474) and prostate cancer cell lines (PC3, DU145) were obtained from American Type Culture Collection (ATCC). Neuroblastoma cell lines (KELLY, SHEP) were received from Children's Cancer Institute (CCIA). The KELLY cells were selected as a MYCN amplified neuroblastoma cell line and the SHEP cells were selected as a MYCN wild-type neuroblastoma cell line.
All breast and prostate cancer cell lines were cultivated in RPMI media supplemented with 10% FCS, HEPES, and insulin. The neuroblastoma cell lines, KELLY, SHEP, were grown in 10% FCS/RPMI and 10% FCS/DMEM, respectively.
as §1
Raw viability was normalised to a nontargeting control (OTP) or mock wells, and death genes or controls inducing varying levels of death were used to monitor transfection efficiency and to define dynamic range in each screen (FIG. 1). To define screen hits, normalised viability scores were binned in the following manner: CV1 bin included candidates with viability >=0.8; CV2 bin included candidates with viability <0.8 and >0.5, and LC bin was assigned to candidates with normalised viability <=0.5. Only LC candidates were defined as screen hits.

[4] = system: SK-N-DZ MYCN-amplified neuroblastoma cell line; test: Secondary validation screen of lethal miRNAs, additional cell line, cell viability; conditions: miRNA mimic alone
Description: as §1, §2, §3

[5] = system: KELLY cells; test: Primary functional miRNA mimic screen, CellTiter-Glo cell viability; conditions: miRNA mimic 25 nM alone, 144 hours post-transfection
Excerpt: Breast cancer cell lines (MDA-MB-231, MDA-MB-468, SK-BR-3; BT474) and prostate cancer cell lines (PC3, DU145) were obtained from American Type Culture Collection (ATCC). Neuroblastoma cell lines (KELLY, SHEP) were received from Children's Cancer Institute (CCIA). The KELLY cells were selected as a MYCN amplified neuroblastoma cell line and the SHEP cells were selected as a MYCN wild-type neuroblastoma cell line. All breast and prostate cancer cell lines were cultivated in RPMI media supplemented with 10% FCS, HEPES, and insulin. […] Each of the cell lines were reverse transfected in 384-well plate format with 25 nM of a miRNA from the Dharmacon miRNA mimic or inhibitor libraries (version 16.0) using liquid-handling robot Calliper Sciclone ALH3000 according to the conditions described in Table 3. […] Luminescence measurements were taken on the Synergy H4 high-throughput multimode microplate reader. All screens were performed in duplicates. Raw viability was normalised to a nontargeting control (OTP) or mock wells, and death genes or controls inducing varying levels of death were used to monitor transfection efficiency and to define dynamic range in each screen (FIG. 1). To define screen hits, normalised viability scores were binned in the following manner: CV1 bin included candidates with viability >=0.8; […] Only LC candidates were defined as screen hits.

Substance | Secondary screen Viability (% of control) KELLY [1] | Secondary screen Viability (% of control) SHEP [2] | Primary screen Viability (% of control) SHEP [3] | Additional cell line Viability (% of control) SKNDZ [4] | Primary screen Viability (% of control) KELLY [5]
hsa-miR-148b-5p (AAGUUCUGUUAUACACUCAGGC; chemistry not given here; listed as Homo sapiens) | 8 % of control | 34 % of control | 20 % of control | 21 % of control | 5 % of control
hsa-miR-517c-3p (guide AUCGUGCAUCCUUUUAGAGUGU; chemistry not given here; listed as Homo sapiens) | 27 % of control | 43 % of control | 40 % of control | 21 % of control | 26 % of control
hsa-miR-103a-2-5p (AGCUUCUUUACAGUGCUGCCUUG; chemistry not given here; listed as Homo sapiens) | 39 % of control | 56 % of control | 46 % of control | 52 % of control | 26 % of control
hsa-miR-544a (guide AUUCUGCAUUUUUAGCAAGUUC; chemistry not given here; listed as Homo sapiens) | 17 % of control | 61 % of control | 32 % of control | 59 % of control | 7 % of control
hsa-miR-491-3p (guide CUUAUGCAAGAUUCCCUUCUAC; chemistry not given here; listed as Homo sapiens) | 12 % of control | 34 % of control | 26 % of control | 47 % of control | 12 % of control
hsa-miR-489 (guide GUGACAUCACAUAUACGGCAGC; chemistry not given here; listed as Homo sapiens) | 4 % of control | 43 % of control | 40 % of control | 33 % of control | 5 % of control
hsa-miR-1262 (AUGGGUGAAUUUGUAGAAGGAU; chemistry not given here; listed as Homo sapiens) | 8 % of control | 42 % of control | 31 % of control | 13 % of control | 8 % of control
hsa-miR-654-5p (guide UGGUGGGCCGCAGAACAUGUGC; chemistry not given here; listed as Homo sapiens) | 7 % of control | 45 % of control | 30 % of control | 28 % of control | 6 % of control
hsa-miR-542-3p (guide UGUGACAGAUUGAUAACUGAAA; chemistry not given here; listed as Homo sapiens) | 20 % of control | 38 % of control | 29 % of control | 28 % of control | 6 % of control
hsa-miR-552 (guide AACAGGUGACUGGUUAGACAA; chemistry not given here; listed as Homo sapiens) | 2 % of control | 47 % of control | 36 % of control | 36 % of control | 2 % of control
hsa-miR-192-3p (CUGCCAAUUCCAUAGGUCACAG; chemistry not given here; listed as Homo sapiens) | 54 % of control | 49 % of control | 43 % of control | 97 % of control | 42 % of control
hsa-miR-1231 (GUGUCUGGGCGGACAGCUGC; chemistry not given here; listed as Homo sapiens) | 48 % of control | 46 % of control | 15 % of control | 98 % of control | 36 % of control
hsa-miR-876-3p (guide UGGUGGUUUACAAAGUAAUUCA; chemistry not given here; listed as Homo sapiens) | 6 % of control | 51 % of control | 94 % of control | 48 % of control | 6 % of control
hsa-miR-892b (guide CACUGGCUCCUUUCUGGGUAGA; chemistry not given here; listed as Homo sapiens) | 3 % of control | 34 % of control | 30 % of control | 54 % of control | 5 % of control
hsa-miR-634 (guide AACCAGCACCCCAACUUUGGAC; chemistry not given here; listed as Homo sapiens) | 13 % of control | 12 % of control | 8 % of control | 41 % of control | 7 % of control
hsa-miR-550a-3p (guide UGUCUUACUCCCUCAGGCACAU; chemistry not given here; listed as Homo sapiens) | 15 % of control | 94 % of control | 61 % of control | 82 % of control | 4 % of control

Source: patent US20190300882A1, “METHODS OF TREATING NEUROBLASTOMA AND REAGENTS THEREFOR” (GARVAN INSTITUTE OF MEDICAL RESEARCH, priority 2016, published 2019)
